Source: patent publication US7973069B2 (PTC Therapeutics, Inc., priority 2004, dated 2011)

Key:
[1] = system: wild-type poliovirus; format: cell-based; conditions: HeLa cells infected with wild-type poliovirus at MOI 0.1, treated one day, CPE score; for WT-PV CPE (1 μM)*: 1 μM compound; for WT-PV CPE (10 μM)*: 10 μM compound; for WT-PV CPE (100 μM)*: 100 μM compound
[2] = system: HCV replicon; format: cell-based

Molecule	IC50 [2]	also measured
COc1ccc(-n2cc(C#N)c3ccc(OC)cc32)cc1 [Compound 4]	–	WT-PV CPE (1 μM)* [1]: 1; WT-PV CPE (10 μM)* [1]: 2; WT-PV CPE (100 μM)* [1]: 3
CCn1cc(C#N)c2ccc(OC(C)C)cc21 [Compound 10]	–	WT-PV CPE (1 μM)* [1]: 2; WT-PV CPE (10 μM)* [1]: 2; WT-PV CPE (100 μM)* [1]: 3
CCn1c(-c2ccc(OC)cc2)c(C#N)c2ccc(OC)cc21 [Compound 19]	–	WT-PV CPE (1 μM)* [1]: 1; WT-PV CPE (10 μM)* [1]: 2; WT-PV CPE (100 μM)* [1]: 3
COc1ccc2c(C#N)c(C)n(-c3ccc4c(c3)OCO4)c2c1 [Compound 24]	–	WT-PV CPE (1 μM)* [1]: 2; WT-PV CPE (10 μM)* [1]: 2; WT-PV CPE (100 μM)* [1]: 3
CCCS(=O)(=O)Nc1ccc(-c2c(C#N)c3ccc(OC(F)F)cc3n2CC)cc1 [Compound 928, Propane-1-sulfonic acid [4-(3-cyano-6-difluoromethoxy-1-ethyl-1H-indoel-2-yl)-phenyl]-amide]	–	melting point: 206 to 208 °C
CC1CCN(CCOc2ccc3c(C#N)c(-c4ccc(NC(=O)OC(C)C)cc4)n(C4CCC4)c3c2)CC1 [Compound 1272]	< 0.5 µM	–
CC(C)OC(=O)Nc1ccc(-c2c(C#N)c3ccc(OCCN4CCSCC4)cc3n2C2CCC2)cc1 [Compound 1273]	0.5 to 2 µM	–
COCCN(C)CCOc1ccc2c(C#N)c(-c3ccc(NC(=O)OC(C)C)cc3)n(C3CCC3)c2c1 [Compound 1274]	< 0.5 µM	–
CC(C)OC(=O)Nc1ccc(-c2c(C#N)c3ccc(OCCn4ccnc4)cc3n2C2CCC2)cc1 [Compound 1275]	< 0.5 µM	–
CCN(CC)CCOc1ccc2c(C#N)c(-c3ccc(NC(=O)OC(C)C)cc3)n(C3CCC3)c2c1 [Compound 1278]	< 0.5 µM	–
CC(C)OC(=O)Nc1ccc(-c2c(C#N)c3ccc(OCCNC4CC4)cc3n2C2CCC2)cc1 [Compound 1279]	< 0.5 µM	–
N#Cc1c(-c2ccc(NS(=O)(=O)C3CC3)cc2)n(C2CCC2)c2cc(OCC3CCCO3)ccc12 (stereo not drawn) [Compound 1280]	< 0.5 µM	–
CC(OC(=O)Nc1ccc(-c2c(C#N)c3ccc(OCC4CCCO4)cc3n2C2CCC2)cc1)C1CC1 (stereo not drawn) [Compound 1281]	< 0.5 µM	–
N#Cc1c(-c2ccc(NC(=O)OC3CCC3)cc2)n(C2CCC2)c2cc(OCC3CCCO3)ccc12 (stereo not drawn) [Compound 1282]	< 0.5 µM	–
CCC(C)OC(=O)Nc1ccc(-c2c(C#N)c3ccc(OCC4CCCO4)cc3n2C2CCC2)cc1 (stereo not drawn) [Compound 1283]	< 0.5 µM	–
CC1(COC(=O)Nc2ccc(-c3c(C#N)c4ccc(OCC5CCCO5)cc4n3C3CCC3)cc2)CC1 (stereo not drawn) [Compound 1284]	< 0.5 µM	–
CC(C)OC(=O)Nc1ccc(-c2c(C#N)c3ccc(OCC4CCCO4)cc3n2C2CCC2)cc1 (stereo not drawn) [Compound 1285]	< 0.5 µM	–
N#Cc1c(-c2ccc(NC(=O)OCC3CCC3)cc2)n(C2CCC2)c2cc(OCC3CCCO3)ccc12 (stereo not drawn) [Compound 1287]	< 0.5 µM	–
N#Cc1c(-c2ccc(NC(=O)NC3CCC3)cc2)n(C2CCC2)c2cc(OCC3CCCO3)ccc12 (stereo not drawn) [Compound 1288]	< 0.5 µM	–
CCOc1ccc2c(C#N)c(-c3ccc(NC(=O)OC(C)c4ccccc4)cc3)n(C3CCC3)c2c1 (stereo not drawn) [Compound 1289]	< 0.5 µM	–
CCOc1ccc2c(C#N)c(-c3ccc(NC(=O)OC(C)C(C)C)cc3)n(C3CCC3)c2c1 (stereo not drawn) [Compound 1290]	< 0.5 µM	–
CCOc1ccc2c(c1)c(C#N)c(-c1ccc(NC(=O)OCC3CC3)cc1)n2C1CCC1 [Compound 1291]	< 0.5 µM	–
CCOc1ccc2c(c1)c(C#N)c(-c1ccc(NC(=O)OC3CCC3)cc1)n2C1CCC1 [Compound 1292]	< 0.5 µM	–

Molecule	IC50 [2]	also measured
CCOc1ccc2c(c1)c(C#N)c(-c1ccc(NC(=O)OCC3(C)CC3)cc1)n2C1CCC1 [Compound 1294]	< 0.5 µM	–
CCOc1ccc2c(c1)c(C#N)c(-c1ccc(NC(=O)OC(C)C3CC3)cc1)n2C1CCC1 (stereo not drawn) [Compound 1295]	< 0.5 µM	–
CCOc1ccc2c(c1)c(C#N)c(-c1ccc(NC(=O)OC(C)C3CC3)cc1)n2C1CCC1 (stereo not drawn) [Compound 1296]	0.5 to 2 µM	–
CCOc1ccc2c(c1)c(C#N)c(-c1ccc(NC(=O)OC3CCOC3)cc1)n2C1CCC1 (stereo not drawn) [Compound 1297]	0.5 to 2 µM	–
CCOc1ccc2c(c1)c(C#N)c(-c1ccc(NC(=O)OC(C)COC)cc1)n2C1CCC1 (stereo not drawn) [Compound 1299]	0.5 to 2 µM	–
COC(=O)c1ccc2c(C#N)c(-c3ccc(NC(=O)OC(C)C)cc3)n(C3CCC3)c2c1 [Compound 1300]	< 0.5 µM	–
COC(=O)c1ccc2c(C#N)c(-c3ccc(NC(=O)NC(C)C)cc3)n(C3CCC3)c2c1 [Compound 1301]	< 0.5 µM	–
CC(C)NC(=O)Nc1ccc(-c2c(C#N)c3cc4c(cc3n2C2CCC2)OCO4)cc1 [Compound 1303]	0.5 to 2 µM	–
C=CCNC(=O)Nc1ccc(-c2c(C#N)c3cc4c(cc3n2C2CCC2)OCO4)cc1 [Compound 1304]	0.5 to 2 µM	–
N#Cc1c(-c2ccc(NC(=O)NC3CCCC3)cc2)n(C2CCC2)c2cc3c(cc12)OCO3 [Compound 1305]	< 0.5 µM	–
CC(C)NC(=O)Nc1ccc(-c2c(C#N)c3ccc(OCCCN4CCOCC4)cc3n2C2CCC2)cc1 [Compound 1306]	0.5 to 2 µM	–
CC(C)NC(=O)Nc1ccc(-c2c(C#N)c3ccc(OCCCN4CCN(C)CC4)cc3n2C2CCC2)cc1 [Compound 1307]	0.5 to 2 µM	–
CC(C)NC(=O)Nc1ccc(-c2c(C#N)c3ccc(OCCCn4ccnc4)cc3n2C2CCC2)cc1 [Compound 1308]	< 0.5 µM	–
CC(C)NC(=O)Nc1ccc(-c2c(C#N)c3ccc(OCCCN4CCCC4)cc3n2C2CCC2)cc1 [Compound 1309]	< 0.5 µM	–
CCOc1ccc2c(C#N)c(-c3ccc(N(CC)CC)cc3)n(C3CC3)c2c1 [Compound 1310]	0.5 to 2 µM	–
CCNc1ccc(-c2c(C#N)c3ccc(OCC)cc3n2C2CC2)cc1 [Compound 1311]	< 0.5 µM	–
CCOc1ccc2c(C#N)c(-c3ccc(NC(=O)OC(C)C(C)(C)C)cc3)n(C3CCC3)c2c1 (stereo not drawn) [Compound 1312]	< 0.5 µM	–
CCOc1ccc2c(C#N)c(-c3ccc(NC(=O)OC(C)COC)cc3)n(C3CCC3)c2c1 (stereo not drawn) [Compound 1313]	< 0.5 µM	–
CC(C)NC(=O)Nc1ccc(-c2c(C#N)c3ccc(OCCN4CCOCC4)cc3n2C2CCC2)cc1 [Compound 1315]	0.5 to 2 µM	–
CC(C)NC(=O)Nc1ccc(-c2c(C#N)c3ccc(OCCN4CCC4)cc3n2C2CCC2)cc1 [Compound 1316]	< 0.5 µM	–
CC(C)NC(=O)Nc1ccc(-c2c(C#N)c3ccc(OCCNC4CC4)cc3n2C2CCC2)cc1 [Compound 1317]	< 0.5 µM	–
CC(C)NC(=O)Nc1ccc(-c2c(C#N)c3ccc(OCCn4cncn4)cc3n2C2CCC2)cc1 [Compound 1318]	< 0.5 µM	–
CC(C)NC(=O)Nc1ccc(-c2c(C#N)c3ccc(OCCN(C)C)cc3n2C2CCC2)cc1 [Compound 1319]	< 0.5 µM	–

Molecule	IC50 [2]	also measured
CCN(C)CCOc1ccc2c(C#N)c(-c3ccc(NC(=O)NC(C)C)cc3)n(C3CCC3)c2c1 [Compound 1320]	< 0.5 µM	–
COCCN(C)CCOc1ccc2c(C#N)c(-c3ccc(NC(=O)NC(C)C)cc3)n(C3CCC3)c2c1 [Compound 1321]	0.5 to 2 µM	–
CC(C)NC(=O)Nc1ccc(-c2c(C#N)c3ccc(OCCn4ccnc4)cc3n2C2CCC2)cc1 [Compound 1322]	< 0.5 µM	–
CCOc1ccc2c(c1)c(C#N)c(-c1ccc(NC(=O)OC(C)CC)cc1)n2C1CCC1 (stereo not drawn) [Compound 1323]	< 0.5 µM	–
CCCOc1ccc2c(C#N)c(-c3ccc(NC(=O)NC(C)CC)cc3)n(C(C)C)c2c1 (stereo not drawn) [Compound 1324]	< 0.5 µM	–
CCCOc1ccc2c(C#N)c(-c3ccc(NC(=O)NC4CC4)cc3)n(C(C)C)c2c1 [Compound 1325]	< 0.5 µM	–
CCCOc1ccc2c(C#N)c(-c3ccc(NC(=O)NC4CCC4)cc3)n(C(C)C)c2c1 [Compound 1326]	0.5 to 2 µM	–
CC(OC(=O)Nc1ccc(-c2c(C#N)c3ccc(OCCN(C)C)cc3n2C2CCC2)cc1)C1CC1 (stereo not drawn) [Compound 1327]	< 0.5 µM	–
CC(OC(=O)Nc1ccc(-c2c(C#N)c3ccc(OCCn4ccnc4)cc3n2C2CCC2)cc1)C1CC1 (stereo not drawn) [Compound 1328]	< 0.5 µM	–
CC(C)OC(=O)Nc1ccc(-c2c(C#N)c3ccc(Oc4ncccn4)cc3n2C2CCC2)cc1 [Compound 2151]	< 0.5 µM	–
CCOc1ccc2c(C#N)c(-c3ccc(NC(=O)O[C@H](C)C4CC4)cc3)n(C3CCC3)c2c1 [Compound 2174]	< 0.5 µM	–
CC(C)n1c(-c2ccc(NC(=O)O[C@H](C)C3CC3)cc2)c(C#N)c2ccc(Oc3ncccn3)cc21 [Compound 2208]	< 0.5 µM	–
C[C@@H](OC(=O)Nc1ccc(-c2c(C#N)c3ccc(Oc4ncccn4)cc3n2C2CCC2)cc1)C1CC1 [Compound 2210, (R)-{4-[3-cyano-1-cyclobutyl-6-(pyrimidin-2-yloxy)-1H-indol-2-yl]-phenyl}carbamic acid 1-cyclopropyl-ethyl ester]	–	melting point: 194 to 196 °C
C[C@@H](OC(=O)Nc1ccc(-c2c(C#N)c3ccc(Oc4cnccn4)cc3n2C2CC2)cc1)C1CC1 [Compound 2322]	< 0.5 µM	–
C[C@@H](OC(=O)Nc1ccc(-c2c(C#N)c3ccc(OCCF)cc3n2C2CCC2)cc1)C1CC1 [Compound 2326]	< 0.5 µM	–
CC(C)OC(=O)Nc1ccc(-c2c(C#N)c3ccc(Oc4ncccn4)cc3n2C2CCC2)cc1F [Compound 2336]	< 0.5 µM	–
C[C@@H](OC(=O)Nc1ccc(-c2cc3ccc(Oc4ncccn4)cc3n2C2CCC2)cc1)C1CC1 [Compound 2341]	< 0.5 µM	–
CC(C)OC(=O)Nc1ccc(-c2c(C#N)c3ccc(Oc4ncccn4)cc3n2C(C)C)cc1 [Compound 2392]	< 0.5 µM	–
C[C@@H](OC(=O)Nc1ccc(-c2c(C#N)c3ccc(Oc4ncccn4)cc3n2C2CC2)cc1F)C1CC1 [Compound 2413]	< 0.5 µM	–
CC(C)NC(=O)Nc1ccc(-c2c(C#N)c3ccc(-c4ccccn4)cc3n2C2CCC2)cc1 [Compound 2440]	< 0.5 µM	–
[4-(3-cyano-1-cyclobutyl-6-cyclopropyl-1H-indol-2-yl)-phenyl]-carbamic acid tert-butyl ester [Compound 2513]	0.5 to 2 µM	–
